“Also recorded” adds a separate entry of the source.
Assays:
[1] = test system: soleus muscle fibres from CMT2D mice; assay type: cell-based, mouse; conditions: 10 μM NMD670 added to CMT2D fibres, μ-Conotoxin-treated; vs before addition; 12, 30, 80 Hz trains
[2] = test system: soleus muscle fibres from CMT2D mice; experiment: Intracellular recordings of action potentials during repeated motor nerve stimulation, isolated soleus nerve-muscle preparations; assay type: cell-based, mouse
healthy volunteers = experiment: Phase I (FIH) clinical trial, safety and tolerability in healthy volunteers; assay type: in vivo, human
Excerpt: Part A1 tested single doses of NMD670 in a double-blind, randomised, placebo-controlled, partial crossover and dose-escalating design in healthy male subjects (see the WHO International Clinicals Trials Registry Platform study reference NL8692). A total of nine dose levels were investigated in three cohorts of subjects. Each cohort consisted of nine subjects, each subject had three study sessions. Each subject received escalating doses of NMD670 on two occasions and placebo on one occasion, the order will be randomized in a cross-over fashion. Each dose level was randomized in a 6:3 ratio (active vs. placebo). See Table 10 for an overview of the randomization scheme.
Due to this temporary halt and partial unblinding of the study during dose level 7, a new randomization was necessary. After unblinding three subjects in dose level 7, the original randomization for dose 8 and 9 was changed in order to keep the study blinded. […] Therefore, for the remaining 2 doses, a full cross-over design investigating one previously tested dose level was used. The 9 subjects in cohort 3 were randomized to receive the study drug in level 8 and placebo in level 9, or vice versa. To determine the effect of food on the exposure of single oral doses of NMD670, dose level 5 was administered in both the fasted and fed condition. Subjects who received dose level 5 returned for a fourth visit in which they received dose level 5 (or matching placebo) in the fed condition, in the same randomization as the chosen dose level in the fasted condition.
Part A2 of the study investigated the safety, tolerability and pharmacokinetics of NMD670 in 8 healthy female subjects of non-childbearing potential, in a randomized, double-blind, placebo-controlled single dose administration of NMD670. Subjects received 800 mg NMD670. Subjects were randomized in a 6:2 ratio (active vs. placebo).
The following endpoints were determined at time points indicated in the Schedule of Assessments. • Serious adverse events (SAEs) and adverse events (AEs) were collected throughout the study at every study visit. • Concomitant medication • Clinical laboratory tests • Haematology • Chemistry • Urinalysis • Coagulation • Vital signs • Pulse Rate (bpm) • Systolic blood pressure (mmHg) • Diastolic blood pressure (mmHg) • Respiratory rate • ECG • Heart Rate (HR) (bpm), PR, QRS, QT, QTcF • 24-hour Holter recording • Hand grip dynamometry • Grip release profile; time profile from 100% maximum voluntary contraction (MVC) to 5% of the 100% MVC
NMD670 has been tested in a Phase 1, FIH, single ascending and multiple ascending dose study in healthy volunteers. […] In addition, the Phase 1 FIH study also tested single doses of 400 mg and 1200 mg in 12 MG patients.

mouse model of CMT1A [3] = experiment: In vivo hind leg force (torque) on sciatic nerve stimulation in mouse model of CMT1A
Method: (§1) Male and female mice (Jacson Laboratory Strain #:030052) approx. 6-7 months of age at time of study start were used. These genetically modified mice are used as a disease model to study Charcot Marie Tooth (CMT) disease type 1A (CMT1A).
(§2) The sodium salt of NMD670 was dissolved in phosphate buffered saline (PBS) to a dose volume of 1 mg/mL. The entire amount of dose-solution was then transferred to a vial labelled A or B (for blinding purposes). The vehicle control solution was PBS and this was transferred to a vial labelled A or B (for blinding purposes). Compound was dosed IP at a volume of 10 mL/kg, from a 1 mg/mL dose solution.
(§3) Animal was sedated (isoflurane inhalation 2% in ambient air) and prepared for assessment of force production from the hind leg, via electrical stimulation of the sciatic nerve in a static position. Stimulation electrodes were inserted at the sciatic nerve, and test pulses of low current amplitude were used to adjust position of all electrodes until a stable reproducible signal was achieved twice. The force resulting from supramaximal electrical stimulation of the supplying motor nerve was recorded from a foot-pad moved by the foot/paw of the animal. See table Table 21 for detailed stimulation protocol.
(§4) NMD670 or vehicle was administered by IP injection at a volume of 10 mL/kg from a 1 mg/mL dose solution while sedated in the EMG measurement set up. 10 to 15 minutes was allowed to elapse before next step was initiated.
as §3, with “The animal remained” for “Animal was”, “sedated” for “sedated (isoflurane inhalation 2% in ambient air)”, “See” for “See table”
(§5) Each mouse was tested prior to intervention with test article, and then tested after IP injection of 10 mg/kg NMD670 or vehicle (PBS). A washout period was then allowed (48 hours), and the mouse was subjected to the same test, but receiving the opposite treatment to that on the first day. All mice thus received both vehicle and NMD670, in a randomized order (FIG. 6).

mouse model of CMT1A [4] = experiment: Stimulated EMG (CMAP decrement) in mouse model of CMT1A; assay type: in vivo
Method: as §1, §2, §4, §5

Q: What does the source list for `C[C@H](Oc1ccc(Br)cc1-c1ccon1)C(=O)O` [NMD670, (2S)-2-[4-bromo-2-(1,2-oxazol-3-yl)phenoxy]propanoic acid]?
A: EPP amplitude [1]: significant increase; also recorded: small non-significant increase; fibres unable to sustain action potential generation for the entire stimulus train ([2]; 12 Hz, after 10 μM NMD670, 3/47 fibres (before 6/60, 10%)): 6,4%; average action potential excitation failure ([2]; 12 Hz, after addition of 10 μM NMD670 (before 3.6)): 1.9%; fibres unable to sustain action potential generation for the entire stimulus train ([2]; 30 Hz, after 10 μM NMD670, 3/47 fibres (before 9/60, 15%)): 6.4%; average action potential excitation failure ([2]; 30 Hz, after addition of 10 μM NMD670 (before 4.9)): 0.8%; fibres unable to sustain action potential generation for the entire stimulus train ([2]; 80 Hz, after 10 μM NMD670, 20/47 fibres (before 33/60, 55%)): 42.5%; average action potential excitation failure ([2]; 80 Hz, after addition of 10 μM NMD670 (before 29.6)): 20.4%; tolerability of maximum repeated dose (healthy volunteers; 400 mg BID, healthy volunteers): well tolerated; healthy subjects with myotonic symptoms (healthy volunteers; 1200 mg once a day, mild in intensity, resolved spontaneously within a few hours): 2; adverse event of myotonia, intensity (healthy volunteers; 1600 mg single dose, one healthy subject, spontaneously and fully resolved within hours): moderate in intensity; also recorded: moderate severity; serious or severe adverse effects (healthy volunteers; Phase 1, healthy subjects, single doses 50 to 1600 mg): No serious or severe adverse effects; also recorded: No serious adverse reactions; overall safety and tolerability (healthy volunteers; Phase 1 FIH study, TEAE incidence similar between NMD670 and placebo): safe and well tolerated; subject discontinuations (healthy volunteers; Phase 1 Part A): no subject discontinuations; total AEs reported (healthy volunteers; Phase 1 Part A, 35 subjects): 70; AEs at least possibly drug related (healthy volunteers; Phase 1 Part A, of 70 AEs, number (%)): 47 (67%); serum uric acid (healthy volunteers; Phase 1 clinical study, not considered clinically significant): dose-dependent decrease; transient myotonia, relation to dose (healthy volunteers; single doses, 1200 mg and 1600 mg): reported at the highest dose levels tested; ability to sustain force during stimulated contraction (mouse model of CMT1A [3]; 10 mg/kg IP, compared to Vehicle): markedly improved; stimulated force (mouse model of CMT1A [3]; 10 mg/kg intra peritoneally, compared to vehicle treatment): significantly increase; Change in Torque (peak stimulated force, before to after treatment) (mouse model of CMT1A [3]; 1 Hz, 10 mg/kg IP, vehicle −0.37): 0.95 mN*m; Change in Torque (peak stimulated force, before to after treatment) (mouse model of CMT1A [3]; 15 Hz, 10 mg/kg IP, vehicle −0.46): 0.59 mN*m; Change in Torque (peak stimulated force, before to after treatment) (mouse model of CMT1A [3]; 30 Hz, 10 mg/kg IP, vehicle −0.95): 0.49 mN*m; increase of peak muscle force (mouse model of CMT1A [3]; 60 Hz, 10 mg/kg IP): 1.13 mNm; Change in Torque (peak stimulated force, before to after treatment) (mouse model of CMT1A [3]; 60 Hz, 10 mg/kg IP, vehicle −1.49): 1.13 mN*m; Change in Fade (before to after treatment) (mouse model of CMT1A [3]; 60 Hz, 10 mg/kg IP, vehicle −1.5): 2.2%; increase of peak muscle force (mouse model of CMT1A [3]; 120 Hz, 10 mg/kg IP): 1.67 mNm; Change in Torque (peak stimulated force, before to after treatment) (mouse model of CMT1A [3]; 120 Hz, 10 mg/kg IP, vehicle −1.36): 1.67 mN*m; Change in Fade (before to after treatment) (mouse model of CMT1A [3]; 120 Hz, 10 mg/kg IP, vehicle −14.1): 8.1%; improvement of ability to sustain force (mouse model of CMT1A [3]; 200 Hz, 10 mg/kg IP): 18.3 % point; Change in Torque (peak stimulated force, before to after treatment) (mouse model of CMT1A [3]; 200 Hz, 10 mg/kg IP, vehicle −1.42): 1.90 mN*m; Change in Fade (before to after treatment) (mouse model of CMT1A [3]; 200 Hz, 10 mg/kg IP, vehicle −24.1): 18.3%; CMAP decrement, NMD670 vs vehicle group after treatment (mouse model of CMT1A [4]; 10 mg/kg IP, n=8): not significantly different; recovery of CMAP decrement after intervention (mouse model of CMT1A [4]; 40 Hz, 10 mg/kg IP (sodium salt in PBS), vehicle 8.6): 15.2 % point

Reference: patent publication US20260240817A1, “COMPOSITIONS AND METHODS FOR TREATING CHARCOT-MARIE-TOOTH DISEASE” (priority 2023, published 2026)
